In patent US11897925B2, “Treatment of homologous recombination deficient cancers” (Sinai Health System, priority 2020, dated 2024):

Legend:
DLD1 BRCA2−/− cells = experiment: Micronuclei (MNi) assay after B6L induction; type: cell-based, human; conditions: BRCA2−/− cells held in G2 with RO-3306 prior to release in mitosis
Protocol: For TOPBP1 rescue experiments, DLD1 wild-type and BRCA2^−/− cells stably expressing 2×HA-TOPBP1 were generated by viral transduction and selection with blasticidin (7.5 μg/mL for parental cells, 10 μg/mL for BRCA2^−/− cells). 3 days after transduction with sgRNA viral particles (as described in the clonogenic survival assays), cells were seeded in a 96-well plate (1,500 for wild-type cells; 4,000 for BRCA2^−/− cells) and cultured for 4 additional days. For inducible B6L expression experiments, DLD1 and MDA-MB-436 cells were seeded in a 96-well plate (1,500 for DLD1 wild-type cells; 4,000 for DLD1 BRCA2^−/− cells; 14,000 for MDA-MB-436) and cultured for up to 4 days in the presence of Aqua-Shield-1.
For detection of micronuclei, cells were fixed with 2% PFA, washed 3 times with PBS, permeabilized with 0.3% Triton X-100 in PBS for 5 min, washed 3 times with PBS, incubated for 1 h with PBS+DAPI (0.5 μg/mL). Alternatively, cells were stained for immunofluorescence (CENPA detection). After the last wash with PBS, images were acquired on an IN Cell Analyzer 6000 automated microscope (GE Life Sciences) with a 40× objective. Micronuclei were automatically detected and counted using the Columbus analysis tool (PerkinElmer).

U2OS cells = experiment: CIP2A/TOPBP1 mitotic foci and filaments after aphidicolin; type: cell-based, human; conditions: 400 nM aphidicolin, 16 h; wild type and MDC1−/− U2OS; mostly independent of MDC1
Protocol: For the experiments relating to the mitotic structures labelled by CIP2A and TOPBP1, U2OS wild-type and MDC1^-/- cell lines were seeded on coverslips and either treated with 400 nM aphidicolin for 16 h (overnight) or left untreated. In order to perform immunofluorescence, cells were quickly washed once with cold PBS and then fixed with ice-cold methanol for 10 min on ice. Methanol was discarded and cells were washed two times with PBS before incubation with blocking buffer (10% FBS in PBS) for at least 1 h. Incubation with primary antibodies diluted in 5% FBS-PBS was performed overnight at 4° C. in a humidity chamber. Coverslips were then washed 3×10 min with blocking buffer and incubated with AlexaFluor-conjugated secondary antibodies for 1 h at room temperature in the dark. After washing 3×10 min with PBS, coverslips were mounted on glass microscopy slides (Thermo Scientific, 630-1985, dimensions […]×[…] mm) with […] mounting medium containing 0.5 μg/mL (DAPI) (Vector Laboratories, H-1200). Confocal images were acquired using a Leica SP8 inverse confocal laser scanning microscope with a 63×, 1.4-NA Plan-Apochromat oil-immersion objective. […] Images were recorded using optimal pixel size based on Nyquist criterion. […] Quantification of the foci was performed manually based on maximum intensity projections. […]

| Structure (SMILES) | B6L-induced micronucleation after holding cells in G2 (DLD1 BRCA2−/− cells) | frequency of CIP2A-TOPBP1 foci and filaments in mitotic cells (U2OS cells) |
| --- | --- | --- |
| O=C1NC(=NCc2cccs2)S/C1=C\c1ccc2ncccc2c1 [RO-3306] | completely suppressed B6L-induced micronucleation | – |
| C[C@@]1(CO)[C@H](O)CC[C@@]2(C)[C@H]1CC[C@H]1C[C@@H]3C[C@@]12CC[C@]3(O)CO [aphidicolin] | – | increased |
